Consider four compounds from patent US5220016A, “Synthesis of navelbine analogs” (priority 1991, dated 1993).

The nature of data set [1]: 72 hr cytotoxicity assay; in vitro antitumor activity. The data set is classed as cell-based. The conditions noted are these: for in vitro antitumor activity: in words, compared with vinblastine. As for the experimental part:
The 18'(S)-epimer was tested in vitro for antitumor activity in comparison with the 18'(R)-epimer and vinblastine. IC50 's were determined in a 72 hr cytotoxicity assay.

For data set [2] the following is noted: cited from earlier work.
The mark [3] stands for this setting: 72 hr cytotoxicity assay, in vitro, cell line not given, read-out: IC50.
[4] abbreviates: compared with vinblastine and vincristine (Fellous et al., 1989).

Each structure is given as a SMILES string. ≈ marks a conversion by molar mass, not a printed value. Read-outs that look alike come from different tables or passages of the source.

In general, IC50 refers to the concentration that gives 50% inhibition. With `CC[C@]12C=CCN3CC[C@@]4(c5cc([C@]6(C(=O)OC)C[C@@H]7CCCN(Cc8c6[nH]c6ccccc86)C7)c(OC)cc5N(C)[C@H]4[C@@](O)(C(=O)OC)[C@@H]1OC(C)=O)[C@@H]32` [18'(R)-Dihydrodesethylnavelbine, (+)-18'R-4'-Desethyl-4'-deshydroxy-7'-norvinblastine], the half-maximal inhibitory concentration (IC50) entry in data set [1] (72 hr cytotoxicity assay, in vitro, cell line not given) is “no activity”. The “in vitro antitumor activity” value in data set [1] was “inactive”.

In data set [1] (72 h), `CC[C@]12C=CCN3CC[C@@]4(c5cc([C@@]6(C(=O)OC)C[C@@H]7CCCN(Cc8c6[nH]c6ccccc86)C7)c(OC)cc5N(C)[C@H]4[C@@](O)(C(=O)OC)[C@@H]1OC(C)=O)[C@@H]32` [18'(S)-Dihydrodesethylnavelbine, (+)-18'S-4'-Desethyl-4'-deshydroxy-7'-norvinblastine] displayed a 50% inhibitory concentration (IC50) of 0.5 ng/mL (≈ 0.664 nM). The “in vitro antitumor activity” value in data set [1] is reported as “comparable to vinblastine”.

In the case of `CCC1=C[C@@H]2CN(C1)Cc1c([nH]c3ccccc13)[C@@](C(=O)OC)(c1cc3c(cc1OC)N(C)[C@H]1[C@@](O)(C(=O)OC)[C@H](OC(C)=O)[C@]4(CC)C=CCN5CC[C@]31[C@@H]54)C2` [Navelbine], the IC50 in data set [1] (setting [3]) came to 5 ng/mL (≈ 6.42 nM). In data set [2] (compared with Vinblastine), the cytotoxicity entry is “decreased cytotoxicity compared with Vinblastine”. For the same compound, in data set [2] (setting [4]), the antitumor activity result is listed as “broader antitumor activity”; the “neurotoxicity and other side effects” value is “lower neurotoxicity and other side effects”.

Consider `CC[C@]1(O)C[C@@H]2CN(CCc3c([nH]c4ccccc34)[C@@](C(=O)OC)(c3cc4c(cc3OC)N(C)[C@H]3[C@@](O)(C(=O)OC)[C@H](OC(C)=O)[C@]5(CC)C=CCN6CC[C@]43[C@@H]65)C2)C1` [Vinblastine], for which, in data set [1] (setting [3]), the IC50 stood at 0.5 ng/mL (≈ 0.617 nM).
